# Measured values from patent publication US7119206B2, “Derivative of dihydro-dibenzo (a) anthracenes and their use as selective estrogen receptor modulators” (Eli Lilly and Company, priority 2002, dated 2006).
# Where a name gives a salt, the structure may show the parent alone.
# Columns and labels:
# [1] = tested on: MCF-7 breast adenocarcinoma cells; assay: MCF-7 proliferation assay (14C-thymidine), antagonist mode; type: cell-based; conditions: Homo sapiens, MCF7, antagonist mode, with 10 pM E2
# Description: MCF-7 breast adenocarcinoma cells (ATCC HTB 22) are maintained in MEM (minimal essential medium, phenol red-free, Gibco BRL) supplemented with 10% fetal bovine serum (FBS) (V/V), L-glutamine (2 mM), sodium pyruvate (1 mM), HEPES ((N-[2-hydroxyethyl]piperazine-N′-[2-ethanesulfonic acid]10 mM}, non-essential amino acids(0.1 mM)and Penicillin Streptomycin(1×). Seven days prior to assay, MCF-7 cells are switched to assay media which is the same as maintenance medium except supplemented with 10% dextran-coated charcoal-stripped fetal bovine serum (DCC-FBS) assay medium in place of 10% FBS. MCF-7 cells are removed from flasks using 10× Trypsin EDTA (phenol red free, Gibco BRL) and diluted to 1× in (Ca++/Mg++ free HBSS (phenol red-free). Cells are adjusted to 80,000 cells/ml in assay medium. Approximately 8,000 cells (100 μl) are added to each well in 96 well Cytostar T scintillation plates (Amersham) and incubated at 37° C. in a 5% CO2 humidified incubator for 24 hours to allow cell adherence and equilibration after transfer. Serial dilutions of drugs are prepared in assay medium at 4× the final desired concentration). A 50 μl aliquot of drug dilutions (at 4× the final assay concentration) is transferred to duplicate wells followed by 50 μl assay medium for the agonist mode or 50 μl of 40 pM of E2 for the antagonist mode to a final volume of 200 μl. For each of the agonist plates, a basal level (media) and a maximum stimulated level (with 1 μM E2) is determined. For each of the antagonist plates, a basal level (media) and a E2 (10 pM) alone control is determined. After an additional 48 hours at 37° C. in a 5% CO2 humidified incubator, 20 μl of assay medium containing 0.01 μCi of ^14C-thymidine (52 mCi/mmol, […], Amersham) is added to each well. The plates are incubated overnight in the same incubator and then counted on the Wallac Microbeta counter. […] For the agonist mode, an EC50 and percent of maximum E2 stimulation and concentration of maximum stimulation is calculated.
# ERAlpha receptor = target: T1, ERAlpha receptor (Homo sapiens, UniProt P03372); assay: ER alpha competition binding assay (3H-Estradiol); conditions: 3H-Estradiol competition; IC50 converted to Ki using Cheng-Prusoff; read-out: ER binding Ki (ERα)
# T1 construct: purchased PanVera
# T1 sequence (P03372 1-595): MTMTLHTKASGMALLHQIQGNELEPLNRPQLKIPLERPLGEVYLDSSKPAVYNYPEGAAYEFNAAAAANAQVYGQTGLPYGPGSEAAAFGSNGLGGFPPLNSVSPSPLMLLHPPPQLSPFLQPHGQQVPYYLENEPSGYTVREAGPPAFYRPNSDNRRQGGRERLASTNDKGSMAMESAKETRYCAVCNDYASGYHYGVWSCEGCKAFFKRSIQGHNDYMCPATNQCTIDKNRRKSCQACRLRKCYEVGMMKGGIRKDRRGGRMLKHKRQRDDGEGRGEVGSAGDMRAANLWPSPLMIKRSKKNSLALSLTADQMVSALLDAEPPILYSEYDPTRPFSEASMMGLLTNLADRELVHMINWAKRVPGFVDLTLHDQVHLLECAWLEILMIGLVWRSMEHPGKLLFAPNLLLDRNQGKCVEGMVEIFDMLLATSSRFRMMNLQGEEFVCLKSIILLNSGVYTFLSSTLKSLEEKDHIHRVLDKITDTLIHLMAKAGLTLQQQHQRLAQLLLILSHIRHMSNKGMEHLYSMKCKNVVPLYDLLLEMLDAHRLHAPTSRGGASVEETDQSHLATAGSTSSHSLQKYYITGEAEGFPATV
# Description: (§1) Competition binding assay is run in a buffer containing 50 mM Hepes, pH 7.5, 1.5 mM EDTA, 150 mM NaCl, 10% glycerol, 1 mg/ml ovalbumin and 5 mM DTT, using 0.025 μCi per well ^3H-Estradiol(NEN #NET517 at 118 Ci/mmol, 1 mCi/ml), 10 ng/well ERAlpha or ERbeta receptor (PanVera). Competing compounds are added at 10 different concentrations. Non-specific binding is determined in the presence of 1 μM of 17-B Estradiol. The binding reaction (140 μl) is incubated for 4 hours at room temperature, then 70 μl of cold DCC buffer is added to each reaction (DCC buffer contains per 50 ml of assay buffer, 0.75 g of charcoal (Sigma) and 0.25 g of dextran (Pharmacia)). Plates are mixed 8 minutes on an orbital shaker at 4° C. Plates are then centrifuged at 3,000 rpm at 4° C. for 10 minutes. An aliquot of 120 μl of the mix is transferred to another 96-well, white flat bottom plate (Costar) and 175 μl of Wallac Optiphase “Hisafe 3” scintillation fluid is added to each well. Plates are sealed and shaken vigorously on an orbital shaker. After an incubation of 2.5 hrs, read plates in a Wallac Microbeta counter. […] The Kd for ^3H-Estradiol is determined by saturation binding to ER alpha and ER beta receptors. The IC50 values for compounds are converted to Ki using Cheng-Prusoff equation and the Kd determined by saturation binding assay.
# ERbeta receptor = target: T2, ERbeta receptor (Homo sapiens, UniProt Q92731); assay: ER beta competition binding assay (3H-Estradiol); conditions: 3H-Estradiol competition; IC50 converted to Ki using Cheng-Prusoff; read-out: ER binding Ki (ERβ)
# T2 construct: purchased PanVera
# T2 sequence (Q92731 whole entry): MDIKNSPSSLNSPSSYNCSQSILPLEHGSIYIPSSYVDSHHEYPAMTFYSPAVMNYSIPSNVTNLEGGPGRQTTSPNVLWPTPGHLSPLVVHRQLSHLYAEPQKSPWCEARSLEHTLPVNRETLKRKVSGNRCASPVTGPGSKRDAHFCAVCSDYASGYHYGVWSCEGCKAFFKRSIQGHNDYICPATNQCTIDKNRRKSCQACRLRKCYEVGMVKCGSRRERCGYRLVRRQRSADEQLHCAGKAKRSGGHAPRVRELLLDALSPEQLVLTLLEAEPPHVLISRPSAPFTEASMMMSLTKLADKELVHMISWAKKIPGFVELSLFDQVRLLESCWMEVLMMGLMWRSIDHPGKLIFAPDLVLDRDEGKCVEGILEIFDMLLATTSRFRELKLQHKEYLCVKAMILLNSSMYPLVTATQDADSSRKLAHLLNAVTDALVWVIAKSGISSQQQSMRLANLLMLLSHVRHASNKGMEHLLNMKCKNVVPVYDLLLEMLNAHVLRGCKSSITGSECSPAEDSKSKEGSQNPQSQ
# Description: as §1
# [2] = tested on: Ishikawa human endometrial tumor cells; assay: Ishikawa cell assay (PNPP readout), antagonist mode; type: cell-based; conditions: with 1 nM E2
# Source text: (§2) Ishikawa human endometrial tumor cells are maintained in MEM (minimum essential medium, with Earle's salts and L-Glutamine, Gibco BRL, Gaithersburg, Md.), supplemented with 10% fetal bovine serum (FBS) (V/V), (Gibco BRL). One day prior to assay, growth media is changed to assay medium, DMEM/F-12 (3:1) (Dulbecco's Modified Eagle Medium: Nutrient Mixture F-12, 3:1 Mixture, phenol red-free, Gibco BRL) supplemented with 5% dextran coated charcoal stripped fetal bovine serum (DCC-FBS) (Hyclone, Logen, Utah), L-Glutamine (2 mM), MEM sodium pyruvate (1 mM), HEPES (N-[2-hydroxyethyl]piperazine-N′-[2-ethanesulfonic acid] 2 mM) all from Gibco BRL). After an overnight incubation, ishikawa cells are rinsed with Dulbecco's Phosphate Buffered Saline (1×) (D-PBS) without Ca^+2 and Mg^+2 (Gibco BRL), and trypsinized by a 3 minute incubation with 0.25% Trypsin/EDTA, phenol red-free (Gibco BRL). Cells are resuspended in assay medium and adjusted to 250,000 cells/ml. Approximately 25,000 cells in a 100 ul media are added to flat-bottom 96 wells microculture plates (Costar 3596) and incubated at 37° C. in a 5% CO2 humidified incubator for 24 hours. The next day, serial dilutions of compounds are prepared in assay medium (at 6 times the final concentration in the assay). The assay is run in dual mode, agonist and antagonist modes. For the agonist mode, plates receive 25 μl/well of assay medium followed by 25 μl/well of diluted compounds (at 6× the final concentrations). For the antagonist mode, plates receive 25 μl/well of 6 nM E2 (β-Estradiol, Sigma, St. Louis, Mo.) followed by 25 μl/well of diluted compounds (at 6× the final concentrations). After an additional 48-hour incubation at 37° C. in a 5% CO2 humidified incubator, media is aspirated from wells and 100 μl fresh assay medium is added to each microculture. Serial dilutions of compounds are prepared and added to the cells as described above. After an additional 72 hour incubation at 37° C. in a 5% CO2 humidified incubator, the assay is quenched by removing media and rinsing plates twice in Dulbecco's Phosphate Buffered Saline (1×) (D-PBS) (Gibco BRL). The plates are dried for 5 min and frozen at −70° C. for at least 1 hour. The plates are then removed from the freezer and allowed to thaw at room temperature. To each well, 100 μl of 1-Step™ PNPP (Pierce Chemical Company, Rockford, Ill.) is added. After a 20-minute incubation, plates are read on a spectophotometer at 405 nm. The data is fitted to a linear interpolation to derive EC50 (for agonist mode) or IC50 (for antagonist mode) values. For the agonist mode, a % efficacy for each compound is calculated versus the response to Tamoxifen. For the antagonist mode, a % efficacy for each compound is calculated versus E2 (1 nM) alone.
# [3] = tested on: Ishikawa human endometrial tumor cells; assay: Ishikawa cell assay (PNPP readout), agonist mode; type: cell-based; conditions: Homo sapiens, Ishikawa; for Emax: % efficacy versus the response to Tamoxifen, read-out: Ishikawa Agonist % Eff
# Source text: as §2
IC50 [1] [nM],Ki (ERAlpha receptor) [nM],Ki (ERbeta receptor) [nM],IC50 [2] [nM],EC50 [3] [nM],SMILES,Emax [3] [%]
17,2,5,712,3,"Oc1ccc2c3c(sc2c1)Cc1ccccc1C3c1ccc(OCCN2CCCCC2)cc1 (stereo not drawn) [Example 1, 11-[4-(2-Piperidin-1-yl-ethoxy)-phenyl]-6,11-dihydro-benzo[b]naphtho[2,3-d]thiophen-3-ol trifluoroacetate]",77
7,1,3,130,3,"Oc1ccc2c(c1)C(c1ccc(OCCN3CCCCC3)cc1)c1c(ccc3cc(O)ccc13)C2 (stereo not drawn) [Example 8, 12-[4-(2-Piperidin-1-yl-ethoxy)-phenyl]-7,12-dihydro-benzo[a]anthracene-3,10-diol]",75
42,3,14,682,3,"Oc1ccc2c3c(sc2c1)Cc1cccc(O)c1C3c1ccc(OCCN2CCCCC2)cc1 (stereo not drawn) [Example 3, 11-[4-(2-Piperidin-1-yl-ethoxy)-phenyl]-6,11-dihydro-benzo[b]naphtho[2,3-d]thiophene-3,10-diol trifluoroacetate]",135
